Source: patent publication US9073880B2, “2-(2-phenylethenyl) 1,3-benzodiazepine derivatives useful for the treatment of cancer” (Yissum Research Development Company of the Hebrew …, priority 2010, dated 2015)

What was measured:
Assay type in all cases: cell-based
[1] = test system: Human ovary cancer A2780 cells; experiment: Cell proliferation, A2780 (Example 4); details: compound in 2-hydroxypropyl-β-cyclodextrin
Method: (§1) Human ovary cancer A2780 cells lines were seeded at a density of 5000 cells/well, human melanoma A375 cells were plated at a density of 2,500 cells/well, human colon carcinoma HCT15 cells were plated at a density of 3,000 cells/well, human prostate carcinoma PC3 cells were plated at a density of 1,500 cells/well, human breast carcinoma MCF7 cells were plated at a density of 5,000 cells/well, human breast carcinoma MDA MB 468 cells were plated at a density of 6,000 cells/well, human myeloma U266, RPMI8226 and CAG cells were plated at a density of 10,000 cells/well. All cells were plated in 96-well plates in 90 μl growth medium containing 10% FCS, 100 units/ml penicillin and 100 μg/ml streptomycin. Compound 3 was added a day later in […] of 1% DMSO in DDW to obtain final concentrations of 0, 0.1, 0.3, 1, 3, and 10 μM. The final concentration of DMSO (0.1% DMSO) was kept constant in all samples. Following exposure of the cells to compound 3 for 72 hours at 37° C., adhered cells were fixed in 0.5% gluteraldehyde in medium for 10 min, washed three times with DDW, once with 0.1M sodium borate buffer pH 8.5 and stained with 1% methylene blue dissolved in 0.1M borate buffer solution for 60 min. Excess dye was washed out and cell-bound dye was eluted with 200 μl/well of 0.1M HCl. The optical density values were read at 630 nm in ELISA plate reader. Non-adhered cells were exposed to WST-1 reagent for 5 hours following 72 hours treatment with the inhibitors, and optical density values were read at 630 nm in ELISA plate reader. The data was analyzed in Microsoft Excel, using the vehicle control as 100% proliferation. The assays were performed in triplicates. The values of IC50 were derived from the dose-dependent growth curves obtained.
(§2) Cell proliferation assay was performed as described in Example 2. […]

[2] = test system: human breast cancer T47D cells; experiment: Cell proliferation, T47D (Example 4); details: compound in 2-hydroxypropyl-β-cyclodextrin
Method: as §1, §2

[3] = test system: human bladder carcinoma T24P cells; experiment: Cell proliferation, T24P (Example 4); details: compound in 2-hydroxypropyl-β-cyclodextrin
Method: as §1, §2

[4] = test system: human colon carcinoma HCT116 cells; experiment: Cell proliferation, HCT116 (Example 4); details: HCT-116, HCT116, colon cancer, compound in 2-hydroxypropyl-β-cyclodextrin
Method: as §1
(§3) Cell proliferation assay was performed as described in Example 2. The following cell line were plated in 96-well plates in 90 μl growth medium containing 10% FCS, 100 units/ml penicillin and 100 μg/ml streptomycin: human ovary cancer A2780 cells (4500 cells/well), human melanoma A375 (1500 cells/well) and YUMAC (2500 cells/well) cells, human colon carcinoma HCT15 (3000 cells/well) and HCT116 (2000 cells/well) cells, human prostate carcinoma PC3 (3000 cells/well), PC3MM2 (3500 cells/well) and DU145 (300 cells/well) cells, human hepatocarcinoma HepG2 (3000 cells/well), human Ewing sarcoma SK-ES-1 (4,500 cells/well), human glioblastoma U138MG (2,000 cells/well), human breast cancer T47D (4000 cells/well) and MDA-MB-468 (6000 cells/well) cells, human small cell lung carcinoma NCI-H1975 (5000 cells/well) cells, human osteosarcoma Saos-2 (5000 cells/well) cells, human pancreatic cancer ASPC (2500 cells/well) cells, human bladder carcinoma T24P (1000 cells/well) cells, human gastric cancer NCI-N87 (5000 cells/well) cells, human lymphoma KARPAS (5,000 cells/well) cells, human leukemia K562 (5,000 cells/well) cells and human multiple myeloma MM1S (10,000 cells/well), U266 (10,000 cells/well) and CAG (5,000 cells/well). Compounds 2-5 and 7-8 were added a day later in 10 μl of 0.7% 2-hydroxypropyl-β-cyclodextrin to obtain final concentrations of 0, 0.1, 0.3, 1, 3 and 10 μM.
(§4) Compounds 2-5 and 7-8 of the present invention were tested for their inhibitory potential in cell proliferation assay. […]

[5] = test system: human leukemia K562 cells; experiment: Cell proliferation, K562 (Example 4); details: compound in 2-hydroxypropyl-β-cyclodextrin
Method: as §1, §3, §4

[6] = test system: human glioblastoma U138MG cells; experiment: Cell proliferation, U138MG (Example 4); details: U138-MG, compound in 2-hydroxypropyl-β-cyclodextrin
Method: as §1, §2

[7] = test system: human prostate carcinoma DU145 cells; experiment: Cell proliferation, DU145 (Example 4); details: DU-145, DU145, prostate cancer, compound in 2-hydroxypropyl-β-cyclodextrin
Method: as §1, §2

[8] = test system: human pancreatic cancer ASPC cells; experiment: Cell proliferation, ASPC (Example 4); details: compound in 2-hydroxypropyl-β-cyclodextrin
Method: as §1, §3, §4

Row | Structure (SMILES) | IC50 [1] | IC50 [2] | IC50 [3] | IC50 [4] | IC50 [5] | IC50 [6] | IC50 [7] | IC50 [8]
1 | O=c1c(O)cc2cnc(/C=C/c3cc(O)c(O)c(Br)c3)sc-2c1O [Compound 3] | 400 nM | 1500 nM | 6000 nM | 500 nM | 500 nM | 300 nM | 2300 nM | 13100 nM
2 | O=c1c(O)cc2cnc(/C=C/c3ccc(O)c(O)c3Br)sc-2c1O [Compound 5] | 400 nM | 1800 nM | 6500 nM | 400 nM | 500 nM | 300 nM | 2700 nM | 8200 nM
